Results reported in patent US10047098B2, “C5-C6-oxacyclic fused iminopyrimidinone compounds as bace inhibitors, compositions, and their use” (Merck Sharp & Dohme Corp., priority 2014, dated 2018).

Columns and labels:
[1] = target: purified human autoBACE-2 (Homo sapiens (Human), UniProt Q9Y5Z0); experiment: BACE-2 Assay (BACE-HTRF assay); format: biochemical; settings: Ki calculated from IC50 using the Cheng-Prusoff equation; QSY7-EISEVNLDAEFC-Eu-amide substrate, pH 5.0
Protocol: Inhibitor IC50s at purified human autoBACE-2 are determined in a time-resolved endpoint proteolysis assay that measures hydrolysis of the QSY7-[…]-Eu-amide FRET peptide substrate (BACE-HTRF assay). […] DMSO is present at 5% final concentration in the assay. Following laser excitation of sample wells at 320 nm, the fluorescence signal at 620 nm is collected for 400 ms following a 50 μs delay on a RUBYstar HTRF plate reader (BMG Labtechnologies). Raw RFU data is normalized to maximum (1.0 nM BACE/DMSO) and minimum (no enzyme/DMSO) RFU values. […] The Ki values are calculated from the IC50 using the Cheng-Prusoff equation.

[2] = target: Recombinant human soluble BACE1 catalytic domain (Homo sapiens (Human), UniProt P56817); experiment: BACE1 HTRF FRET Assay; format: biochemical; settings: Ki calculated from IC50 using the Cheng-Prusoff equation; QSY7-APPswe-Eu substrate, pH 5.0; read-out: BACE-1 Ki
Recombinant human soluble BACE1 catalytic domain, sequence (P56817 75-416): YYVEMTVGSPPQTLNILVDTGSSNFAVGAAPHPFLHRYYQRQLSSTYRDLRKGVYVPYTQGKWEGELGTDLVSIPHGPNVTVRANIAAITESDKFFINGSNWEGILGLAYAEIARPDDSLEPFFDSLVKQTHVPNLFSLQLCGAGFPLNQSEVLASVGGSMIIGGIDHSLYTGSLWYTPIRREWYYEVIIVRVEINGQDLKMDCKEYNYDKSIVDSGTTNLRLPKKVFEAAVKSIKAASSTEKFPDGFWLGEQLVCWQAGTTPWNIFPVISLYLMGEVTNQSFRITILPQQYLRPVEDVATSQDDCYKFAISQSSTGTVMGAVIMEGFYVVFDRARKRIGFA
Text: Reagents: Na^+-Acetate pH 5.0; 1% Brij-35; Glycerol; Dimethyl Sulfoxide (DMSO); Recombinant human soluble BACE1 catalytic domain (>95% pure); APP Swedish mutant peptide substrate (QSY7-APP^swe-Eu): QSY7-EISEVNLDAEFC-Europium-amide.
A homogeneous time-resolved FRET assay can be used to determine IC50 values for inhibitors of the soluble human BACE1 catalytic domain. This assay monitors the increase of 620 nm fluorescence that resulted from BACE1 cleavage of an APPswedish APP^swe mutant peptide FRET substrate (QSY7-EISEVNLDAEFC-Europium-amide). This substrate contains an N-terminal QSY7 moiety that serves as a quencher of the C-terminal Europium fluorophore (620 nm Em). In the absence of enzyme activity, 620 nm fluorescence is low in the assay and increased linearly over 3 hours in the presence of uninhibited BACE1 enzyme. Inhibition of BACE1 cleavage of the QSY7-APP^swe-Eu substrate by inhibitors is manifested as a suppression of 620 nm fluorescence.
Varying concentrations of inhibitors at 3× the final desired concentration in a volume of 10 ul are preincubated with purified human BACE1 catalytic domain (3 nM in 10 μl) for 30 minutes at 30° C. in reaction buffer containing 20 mM Na-Acetate pH 5.0, 10% glycerol, 0.1% Brij-35 and 7.5% DSMO. Reactions are initiated by addition of 10 μl of 600 nM QSY7-APP^swe-Eu substrate (200 nM final) to give a final reaction volume of 30 μl in a 384 well Nunc HTRF plate. The reactions are incubated at 30° C. for 1.5 hours. The 620 nm fluorescence is then read on a Rubystar HTRF plate reader (BMG Labtechnologies) using a 50 millisecond delay followed by a 400 millisecond acquisition time window. Inhibitor IC50 values are derived from non-linear regression analysis of concentration response curves. Ki values are then calculated from IC50 values using the Cheng-Prusoff equation using a previously determined […] of 8 μM for the QSY7-APP^swe-Eu substrate at BACE1.

purified human autoBACE-2, sequence (Q9Y5Z0 63-473 limits assumed): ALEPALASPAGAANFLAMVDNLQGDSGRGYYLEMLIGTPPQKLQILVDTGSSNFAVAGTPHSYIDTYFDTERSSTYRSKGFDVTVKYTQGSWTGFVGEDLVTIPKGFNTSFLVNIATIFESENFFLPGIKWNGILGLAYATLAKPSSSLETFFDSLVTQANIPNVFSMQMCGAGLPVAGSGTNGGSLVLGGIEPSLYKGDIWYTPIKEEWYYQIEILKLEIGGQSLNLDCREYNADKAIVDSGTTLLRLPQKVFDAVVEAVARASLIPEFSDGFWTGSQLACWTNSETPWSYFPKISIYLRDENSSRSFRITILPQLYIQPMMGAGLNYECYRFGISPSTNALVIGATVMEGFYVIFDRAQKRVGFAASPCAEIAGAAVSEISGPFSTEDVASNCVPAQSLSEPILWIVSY

Row | SMILES | Ki [1] | Ki [2]
1 | CC(C)COc1ccc(F)c([C@]23CO[C@@H](C4CC4)C[C@H]2C(=O)N(C)C(=N)N3)c1 [Example 45, (4aR,6R,8aS)-6-cyclopropyl-8a-(2-fluoro-5-isobutoxyphenyl)-2-imino-3-methylhexahydro-1H-pyrano[3,4-d]pyrimidin-4(4aH)-one] | 25 nM | 45 nM
2 | CN1C(=N)N[C@@]2(c3cc(OCC4CC(F)(F)C4)ccc3F)CO[C@@H](C3CC3)C[C@H]2C1=O [Example 51, (4aR,6R,8aS)-6-cyclopropyl-8a-(5-((3,3-difluorocyclobutyl)methoxy)-2-fluorophenyl)-2-imino-3-methylhexahydro-1H-pyrano[3,4-d]pyrimidin-4(4aH)-one] | 42 nM | 55 nM
3 | CN1C(=N)N[C@@]2(c3cc(OCC45CC(C4)C5)ccc3F)CO[C@@H](C3CC3)C[C@H]2C1=O [Example 54, (4aR,6R,8aS)-8a-(5-(bicyclo[1.1.1]pentan-1-ylmethoxy)-2-fluorophenyl)-6-cyclopropyl-2-imino-3-methylhexahydro-1H-pyrano[3,4-d]pyrimidin-4(4aH)-one] | 4 nM | 21 nM
4 | CN1C(=N)N[C@@]2(c3cc(OCC(F)(F)F)ccc3F)CO[C@@H](C3CC3)C[C@H]2C1=O [Example 55, (4aR,6R,8aS)-6-cyclopropyl-8a-(2-fluoro-5-(2,2,2-trifluoroethoxy)phenyl)-2-imino-3-methylhexahydro-1H-pyrano[3,4-d]pyrimidin-4(4aH)-one] | 4610 nM | 636 nM
5 | CN1C(=N)N[C@@]2(c3cc(Oc4cc(-n5cccn5)ccn4)ccc3F)CO[C@@H](C3CC3)C[C@H]2C1=O [Example 56, (4aR,6R,8aS)-8a-(5-((4-(1H-pyrazol-1-yl)pyridin-2-yl)oxy)-2-fluorophenyl)-6-cyclopropyl-2-imino-3-methylhexahydro-1H-pyrano[3,4-d]pyrimidin-4(4aH)-one] | 51 nM | 9 nM
6 | CN1C(=N)N[C@@]2(c3cc(OC4CC(F)(F)C4)ccc3F)CO[C@@H](C3CC3)C[C@H]2C1=O [Example 57, (4aR,6R,8aS)-6-cyclopropyl-8a-(5-(3,3-difluorocyclobutoxy)-2-fluorophenyl)-2-imino-3-methylhexahydro-1H-pyrano[3,4-d]pyrimidin-4(4aH)-one] | 41 nM | 43 nM
7 | CN1C(=N)N[C@@]2(c3cc(Oc4ncncc4F)ccc3F)CO[C@@H](C3CC3)CC2C1=O (stereo partly drawn) [Example 58, (6R,8aS)-6-cyclopropyl-8a-(2-fluoro-5-((5-fluoropyrimidin-4-yl)oxy)phenyl)-2-imino-3-methylhexahydro-IH-pyrano[3,4-d]pyrimidin-4(4aH)-one] | 35 nM | 13 nM
8 | Cc1cnc(Oc2ccc(F)c([C@]34CO[C@@H](C5CC5)C[C@H]3C(=O)N(C)C(=N)N4)c2)c(F)c1 [Example 60, (4aR,6R,8aS)-6-cyclopropyl-8a-(2-fluoro-5-((3-fluoro-5-methylpyridin-2-yl)oxy)phenyl)-2-imino-3-methylhexahydro-1H-pyrano[3,4-d]pyrimidin-4(4aH)-one] | 125 nM | 121 nM
9 | COc1cncc(Oc2ccc(F)c([C@]34CO[C@@H](C)C[C@H]3C(=O)N(C)C(=N)N4)c2)n1 [Example 65, (4aR,6S,8aS)-8a-(2-fluoro-5-((6-methoxypyrazin-2-yl)oxy)phenyl)-2-imino-3,6-dimethylhexahydro-1H-pyrano[3,4-d]pyrimidin-4(4aH)-one] | 15.8 nM | 6.6 nM
10 | C[C@H]1C[C@H]2C(=O)N(C)C(=N)N[C@@]2(c2cc(Oc3cnccn3)ccc2F)CO1 [Example 66, (4aR,6S,8aS)-8a-(2-fluoro-5-(pyrazin-2-yloxy)phenyl)-2-imino-3,6-dimethylhexahydro-1H-pyrano[3,4-d]pyrimidin-4(4aH)-one] | 30.3 nM | 11.8 nM
11 | Cc1cncc(Oc2ccc(F)c([C@]34CO[C@@H](C)C[C@H]3C(=O)N(C)C(=N)N4)c2)n1 [Example 67, (4aR,6S,8aS)-8a-(2-fluoro-5-((6-methylpyrazin-2-yl)oxy)phenyl)-2-imino-3,6-dimethylhexahydro-1H-pyrano[3,4-d]pyrimidin-4(4aH)-one] | 25.2 nM | 13.3 nM

More lines, now with the values ahead:

Row | Ki [1] | Ki [2] | SMILES
12 | 41 nM | 40 nM | CN1C(=N)N[C@@]2(c3cc(OCC(F)F)ccc3F)CO[C@@H](C3CC3)C[C@H]2C1=O [Example 46, (4aR,6R,8aS)-6-cyclopropyl-8a-(5-(2,2-difluoroethoxy)-2-fluorophenyl)-2-imino-3-methylhexahydro-1H-pyrano[3,4-d]pyrimidin-4(4aH)-one]
13 | 9300 nM | 5720 nM | COC[C@@H]1C[C@H]2C(=O)N(C)C(=N)N[C@@]2(c2ccc(F)cc2F)CO1 [Example 47, (4aR,6S,8aS)-8a-(2,4-difluorophenyl)-2-imino-6-(methoxymethyl)-3-methylhexahydro-1H-pyrano[3,4-d]pyrimidin-4(4aH)-one]
14 | 1380 nM | 1110 nM | COC(=O)[C@@H]1C[C@H]2C(=O)N(C)C(=N)N[C@@]2(c2ccc(F)cc2F)CO1 [Example 48, methyl (4aR,6S,8aS)-8a-(2,4-difluorophenyl)-2-imino-3-methyl-4-oxooctahydro-1H-pyrano[3,4-d]pyrimidine-6-carboxylate]
15 | 64 nM | 66 nM | CCCOc1ccc(F)c([C@]23CO[C@@H](C4CC4)C[C@H]2C(=O)N(C)C(=N)N3)c1 [Example 49, (4aR,6R,8aS)-6-cyclopropyl-8a-(2-fluoro-5-propoxyphenyl)-2-imino-3-methylhexahydro-1H-pyrano[3,4-d]pyrimidin-4(4aH)-one]
16 | 68 nM | 92 nM | COCCOc1ccc(F)c([C@]23CO[C@@H](C4CC4)C[C@H]2C(=O)N(C)C(=N)N3)c1 [Example 50, (4aR,6R,8aS)-6-cyclopropyl-8a-(2-fluoro-5-(2-methoxyethoxy)phenyl)-2-imino-3-methylhexahydro-1H-pyrano[3,4-d]pyrimidin-4(4aH)-one]
17 | 18 nM | 31 nM | CN1C(=N)N[C@@]2(c3cc(OCC4CC4(F)F)ccc3F)CO[C@@H](C3CC3)C[C@H]2C1=O (some centres unmarked) [Example 52]
18 | 117 nM | 180 nM | COC1CC(COc2ccc(F)c([C@]34CO[C@@H](C5CC5)C[C@H]3C(=O)N(C)C(=N)N4)c2)C1 (stereo partly drawn) [Example 53, (4aR,6R,8aS)-6-cyclopropyl-8a-(2-fluoro-5-((3-methoxycyclobutyl)methoxy)phenyl)-2-imino-3-methylhexahydro-1H-pyrano[3,4-d]pyrimidin-4(4aH)-one]
19 | 20 nM | 3 nM | COC[C@H]1C[C@H]2C(=O)N(C)C(=N)N[C@@]2(c2cc(Oc3cc(F)cnc3F)c(F)cc2F)CO1 [Example 59, (4aR,6R,8aS)-8a-(5-((2,5-difluoropyridin-3-yl)oxy)-2,4-difluorophenyl)-2-imino-6-(methoxymethyl)-3-methylhexahydro-1H-pyrano[3,4-d]pyrimidin-4(4aH)-one]
20 | 82.7 nM | 358 nM | C[C@H]1C[C@H]2C(=O)N(C)C(=N)N[C@@]2(c2cc(O)ccc2F)CO1 [Example 64, (4aR,6S,8aS)-8a-(2-fluoro-5-hydroxyphenyl)-2-imino-3,6-dimethylhexahydro-1H-pyrano[3,4-d]pyrimidin-4(4aH)-one]
21 | 71.3 nM | 157 nM | C[C@H]1C[C@H]2C(=O)N(C)C(=N)N[C@@]2(c2cc(Oc3ccc(F)cn3)ccc2F)CO1 [Example 68, (4aR,6S,8aS)-8a-(2-fluoro-5-((5-fluoropyridin-2-yl)oxy)phenyl)-2-imino-3,6-dimethylhexahydro-1H-pyrano[3,4-d]pyrimidin-4(4aH)-one]
22 | 6.78 nM | 11 nM | C[C@H]1C[C@H]2C(=O)N(C)C(=N)N[C@@]2(c2cc(Oc3ncncc3F)ccc2F)CO1 [Example 69, (4aR,6S,8aS)-8a-(2-fluoro-5-((5-fluoropyrimidin-4-yl)oxy)phenyl)-2-imino-3,6-dimethylhexahydro-1H-pyrano[3,4-d]pyrimidin-4(4aH)-one]
